Laboratory results taken from the NIST ThermoML archive (doi:10.1016/j.jct.2012.03.031).

Test: molar heat capacity at constant pressure
Settings: 101.33 kPa

CCCCc1ccc(C(=O)Oc2ccc(C#N)c(F)c2)cc1 [4-cyano-3-fluorophenyl 4-butylbenzoate]
Settings | molar heat capacity at constant pressure [J/K/mol]
141.25 K, Crystal 1, Small (less than 1 g) adiabatic calorimetry | 201.94
142.25 K, Crystal 1, Small (less than 1 g) adiabatic calorimetry | 202.81
142.97 K, Crystal 2, Small (less than 1 g) adiabatic calorimetry | 216.4
143.16 K, Crystal 1, Small (less than 1 g) adiabatic calorimetry | 203.97
144.71 K, Crystal 1, Small (less than 1 g) adiabatic calorimetry | 205.52
145.06 K, Crystal 1, Small (less than 1 g) adiabatic calorimetry | 206.05
145.3 K, Crystal 2, Small (less than 1 g) adiabatic calorimetry | 219.62
146.94 K, Crystal 1, Small (less than 1 g) adiabatic calorimetry | 208.17
147.18 K, Crystal 1, Small (less than 1 g) adiabatic calorimetry | 208.18
147.65 K, Crystal 2, Small (less than 1 g) adiabatic calorimetry | 221.78
148.81 K, Crystal 1, Small (less than 1 g) adiabatic calorimetry | 210.18
149.66 K, Crystal 1, Small (less than 1 g) adiabatic calorimetry | 210.87
150 K, Crystal 1, Vacuum adiabatic calorimetry | 211.22
150 K, Crystal 2, Small (less than 1 g) adiabatic calorimetry | 226.25
150 K, Crystal 2, Vacuum adiabatic calorimetry | 226.24
150.66 K, Crystal 1, Small (less than 1 g) adiabatic calorimetry | 212.24
152.15 K, Crystal 1, Small (less than 1 g) adiabatic calorimetry | 213.41
152.37 K, Crystal 2, Small (less than 1 g) adiabatic calorimetry | 229.33
152.5 K, Crystal 1, Small (less than 1 g) adiabatic calorimetry | 214.29
154.33 K, Crystal 1, Small (less than 1 g) adiabatic calorimetry | 216.32
154.65 K, Crystal 1, Small (less than 1 g) adiabatic calorimetry | 216.65
154.75 K, Crystal 2, Small (less than 1 g) adiabatic calorimetry | 232.46
156.14 K, Crystal 1, Small (less than 1 g) adiabatic calorimetry | 218.31
157.14 K, Crystal 2, Small (less than 1 g) adiabatic calorimetry | 235.73
157.17 K, Crystal 1, Small (less than 1 g) adiabatic calorimetry | 219.23
157.94 K, Crystal 1, Small (less than 1 g) adiabatic calorimetry | 220.33
159.54 K, Crystal 2, Small (less than 1 g) adiabatic calorimetry | 238.88
159.69 K, Crystal 1, Small (less than 1 g) adiabatic calorimetry | 222.08
159.74 K, Crystal 1, Small (less than 1 g) adiabatic calorimetry | 222.37
160 K, Crystal 1, Vacuum adiabatic calorimetry | 222.43
160 K, Crystal 2, Vacuum adiabatic calorimetry | 239.47
161.51 K, Crystal 1, Small (less than 1 g) adiabatic calorimetry | 224.35
161.96 K, Crystal 2, Small (less than 1 g) adiabatic calorimetry | 242.01
162.23 K, Crystal 1, Small (less than 1 g) adiabatic calorimetry | 224.93
163.28 K, Crystal 1, Small (less than 1 g) adiabatic calorimetry | 226.23
164.39 K, Crystal 2, Small (less than 1 g) adiabatic calorimetry | 245.1
164.77 K, Crystal 1, Small (less than 1 g) adiabatic calorimetry | 227.75
164.86 K, Crystal 1, Small (less than 1 g) adiabatic calorimetry | 227.97
166.27 K, Crystal 1, Small (less than 1 g) adiabatic calorimetry | 229.58
166.83 K, Crystal 2, Small (less than 1 g) adiabatic calorimetry | 248.12
167.33 K, Crystal 1, Small (less than 1 g) adiabatic calorimetry | 230.64
167.66 K, Crystal 1, Small (less than 1 g) adiabatic calorimetry | 231.21
169.05 K, Crystal 1, Small (less than 1 g) adiabatic calorimetry | 232.8
169.28 K, Crystal 2, Small (less than 1 g) adiabatic calorimetry | 251.2
169.91 K, Crystal 1, Small (less than 1 g) adiabatic calorimetry | 233.56
170 K, Crystal 1, Vacuum adiabatic calorimetry | 233.66
170 K, Crystal 2, Vacuum adiabatic calorimetry | 252.09
170.44 K, Crystal 1, Small (less than 1 g) adiabatic calorimetry | 234.45
171.75 K, Crystal 2, Small (less than 1 g) adiabatic calorimetry | 254.25
171.81 K, Crystal 1, Small (less than 1 g) adiabatic calorimetry | 235.91
172.49 K, Crystal 1, Small (less than 1 g) adiabatic calorimetry | 236.43
173.18 K, Crystal 1, Small (less than 1 g) adiabatic calorimetry | 237.49
174.23 K, Crystal 2, Small (less than 1 g) adiabatic calorimetry | 257.27
174.55 K, Crystal 1, Small (less than 1 g) adiabatic calorimetry | 239.04
175.09 K, Crystal 1, Small (less than 1 g) adiabatic calorimetry | 239.43
175.91 K, Crystal 1, Small (less than 1 g) adiabatic calorimetry | 240.69
176.72 K, Crystal 2, Small (less than 1 g) adiabatic calorimetry | 260.38
177.26 K, Crystal 1, Small (less than 1 g) adiabatic calorimetry | 242.06
177.69 K, Crystal 1, Small (less than 1 g) adiabatic calorimetry | 242.43
178.61 K, Crystal 1, Small (less than 1 g) adiabatic calorimetry | 243.74
179.23 K, Crystal 2, Small (less than 1 g) adiabatic calorimetry | 263.65
179.95 K, Crystal 1, Small (less than 1 g) adiabatic calorimetry | 245.46
180 K, Crystal 1, Vacuum adiabatic calorimetry | 245.15
180 K, Crystal 2, Vacuum adiabatic calorimetry | 264.63
180.31 K, Crystal 1, Small (less than 1 g) adiabatic calorimetry | 245.52
181.28 K, Crystal 1, Small (less than 1 g) adiabatic calorimetry | 246.9
181.74 K, Crystal 2, Small (less than 1 g) adiabatic calorimetry | 266.86
182.62 K, Crystal 1, Small (less than 1 g) adiabatic calorimetry | 248.29
182.95 K, Crystal 1, Small (less than 1 g) adiabatic calorimetry | 248.51
183.94 K, Crystal 1, Small (less than 1 g) adiabatic calorimetry | 249.95
184.27 K, Crystal 2, Small (less than 1 g) adiabatic calorimetry | 270.08
185.26 K, Crystal 1, Small (less than 1 g) adiabatic calorimetry | 251.54
185.59 K, Crystal 1, Small (less than 1 g) adiabatic calorimetry | 251.57
186.58 K, Crystal 1, Small (less than 1 g) adiabatic calorimetry | 253
186.82 K, Crystal 2, Small (less than 1 g) adiabatic calorimetry | 273.41
187.89 K, Crystal 1, Small (less than 1 g) adiabatic calorimetry | 254.44
188.25 K, Crystal 1, Small (less than 1 g) adiabatic calorimetry | 254.7
189.2 K, Crystal 1, Small (less than 1 g) adiabatic calorimetry | 256.01
189.37 K, Crystal 2, Small (less than 1 g) adiabatic calorimetry | 276.6
190 K, Crystal 1, Vacuum adiabatic calorimetry | 256.78
190 K, Crystal 2, Vacuum adiabatic calorimetry | 277.35
190.5 K, Crystal 1, Small (less than 1 g) adiabatic calorimetry | 257.62
190.92 K, Crystal 1, Small (less than 1 g) adiabatic calorimetry | 257.87
191.8 K, Crystal 1, Small (less than 1 g) adiabatic calorimetry | 259.15
191.94 K, Crystal 2, Small (less than 1 g) adiabatic calorimetry | 279.67
193.09 K, Crystal 1, Small (less than 1 g) adiabatic calorimetry | 260.81
193.6 K, Crystal 1, Small (less than 1 g) adiabatic calorimetry | 261.01
194.38 K, Crystal 1, Small (less than 1 g) adiabatic calorimetry | 262.19
194.52 K, Crystal 2, Small (less than 1 g) adiabatic calorimetry | 282.72
195.67 K, Crystal 1, Small (less than 1 g) adiabatic calorimetry | 263.76
196.29 K, Crystal 1, Small (less than 1 g) adiabatic calorimetry | 264.21
196.94 K, Crystal 1, Small (less than 1 g) adiabatic calorimetry | 265.24
197.12 K, Crystal 2, Small (less than 1 g) adiabatic calorimetry | 285.61
198.22 K, Crystal 1, Small (less than 1 g) adiabatic calorimetry | 266.88
199 K, Crystal 1, Small (less than 1 g) adiabatic calorimetry | 267.79
199.49 K, Crystal 1, Small (less than 1 g) adiabatic calorimetry | 268.59
199.73 K, Crystal 2, Small (less than 1 g) adiabatic calorimetry | 288.75
200 K, Crystal 1, Vacuum adiabatic calorimetry | 269.03
200 K, Crystal 2, Vacuum adiabatic calorimetry | 289.06
200.76 K, Crystal 1, Small (less than 1 g) adiabatic calorimetry | 270.11
201.72 K, Crystal 1, Small (less than 1 g) adiabatic calorimetry | 271.16
202.02 K, Crystal 1, Small (less than 1 g) adiabatic calorimetry | 271.81
202.35 K, Crystal 2, Small (less than 1 g) adiabatic calorimetry | 291.75
203.27 K, Crystal 1, Small (less than 1 g) adiabatic calorimetry | 273.36
204.44 K, Crystal 1, Small (less than 1 g) adiabatic calorimetry | 274.73
204.53 K, Crystal 1, Small (less than 1 g) adiabatic calorimetry | 275.01
204.98 K, Crystal 2, Small (less than 1 g) adiabatic calorimetry | 294.58
205.77 K, Crystal 1, Small (less than 1 g) adiabatic calorimetry | 276.69
207.02 K, Crystal 1, Small (less than 1 g) adiabatic calorimetry | 278.34
207.18 K, Crystal 1, Small (less than 1 g) adiabatic calorimetry | 278.39
207.63 K, Crystal 2, Small (less than 1 g) adiabatic calorimetry | 297.45
208.26 K, Crystal 1, Small (less than 1 g) adiabatic calorimetry | 279.95
209.49 K, Crystal 1, Small (less than 1 g) adiabatic calorimetry | 281.68
209.93 K, Crystal 1, Small (less than 1 g) adiabatic calorimetry | 282.11
210 K, Crystal 1, Vacuum adiabatic calorimetry | 282.2
210 K, Crystal 2, Vacuum adiabatic calorimetry | 300.06
210.29 K, Crystal 2, Small (less than 1 g) adiabatic calorimetry | 300.38
210.72 K, Crystal 1, Small (less than 1 g) adiabatic calorimetry | 283.2
211.95 K, Crystal 1, Small (less than 1 g) adiabatic calorimetry | 284.9
212.69 K, Crystal 1, Small (less than 1 g) adiabatic calorimetry | 285.7
212.97 K, Crystal 2, Small (less than 1 g) adiabatic calorimetry | 303.2
213.18 K, Crystal 1, Small (less than 1 g) adiabatic calorimetry | 286.42
214.4 K, Crystal 1, Small (less than 1 g) adiabatic calorimetry | 288
215.46 K, Crystal 1, Small (less than 1 g) adiabatic calorimetry | 289.41
215.62 K, Crystal 1, Small (less than 1 g) adiabatic calorimetry | 289.65
215.65 K, Crystal 2, Small (less than 1 g) adiabatic calorimetry | 306.03
216.83 K, Crystal 1, Small (less than 1 g) adiabatic calorimetry | 291.26
218.04 K, Crystal 1, Small (less than 1 g) adiabatic calorimetry | 292.84
218.24 K, Crystal 1, Small (less than 1 g) adiabatic calorimetry | 293.08
218.35 K, Crystal 2, Small (less than 1 g) adiabatic calorimetry | 308.99
219.24 K, Crystal 1, Small (less than 1 g) adiabatic calorimetry | 294.47
220 K, Crystal 1, Vacuum adiabatic calorimetry | 295.42
220 K, Crystal 2, Vacuum adiabatic calorimetry | 310.55
220.45 K, Crystal 1, Small (less than 1 g) adiabatic calorimetry | 296.21
221.03 K, Crystal 1, Small (less than 1 g) adiabatic calorimetry | 296.79
